In patent US12606591B2, “Process for the preparation of drospirenone as a fine powder through a double change of crystalline form” (INDUSTRIALE CHIMICA S.R.L., priority 2021, dated 2026):

Assay: Powder particle size by Helos laser particle size analyzer with Quixel disperser
Format: physicochemical
Method: The powders particle size was measured using a Helos laser particle size analyzer equipped with a Quixel disperser (instrument and disperser manufactured and sold by the company Sympatec GmbH of Clausthal-Zellerfeld, Germany), using ultrapure milli-Q water as the dispersing medium. The sample was first dispersed in milli-Q water by adding a few drops of Tween® 80 (polyethylene glycol sorbitan monooleate, sold by Merck) and placed in a sonicating bath for 5 min, then the suspension was added to the dispersing medium loaded into the instrument until an optical density value OD=4-15% is obtained. The measurement (30 s background +30 s measurement) was performed by operating under continuous sonication with the recirculation pump set at 20%.

- size of all particles (Crystalline Form I powder of Example 3 (process of the invention), FIG. 9, cumulative curve): lower than 110 μm
- size of the largest particles present (Crystalline Form I powder of Example 4 (comparative), FIG. 10): over 150 μm
- peak of the sample particles size distribution (Crystalline Form I powder of Example 4 (comparative, no transformation to Form II), FIG. 10): about 70 μm
SMILES: C[C@]12CCC(=O)C=C1[C@@H]1C[C@@H]1[C@H]1[C@@H]3[C@@H]4C[C@@H]4[C@@]4(CCC(=O)O4)[C@@]3(C)CC[C@@H]12 [Drospirenone, 17β-hydroxy-6β, 7β; 15, 16β-dimethylene-3-oxo-17α-pregn-4-ene-21-carboxylic acid γ-lactone]
